Experimental data as given in patent US20250073311A1, “DOSAGE REGIME” (ZEALAND PHARMA A/S, priority 2021, published 2025).
“And” between values parts separate entries of the source, which are not always exact repeats. Equal entries are not always repeated. Numbered stars: 1 amine (or outer) side, 2 acyl side, 3 side chain; on linkers, the order of the positions; unused ones are H or OH. Square brackets hold non-standard residues; d marks the D form. Side chains are listed from the residue outwards. Peptide text beside a SMILES is read from it. * marks the point of attachment. C18 diacid = O=C(O)CCCCCCCCCCCCCCCCC(=O)*; γGlu = O=C(O)[C@H](CCC(=O)[*:2])N[*:1]; Aib = CC(C)(N)C(=O)O

System: healthy human subjects
Test: Multiple ascending dose Phase 1b trial, adverse events
Type: in vivo
Conditions: 7 subjects
Experimental: A multiple ascending dose Phase 1b trial was conducted for Cpd. 18 investigating the safety of multiple subcutaneous injections of various ascending doses in healthy human subjects. The trial was a Randomized, Double-blind, Placebo-controlled, Multi Ascending Dose Trial assessing Safety, Tolerability, Pharmacokinetics and Pharmacodynamics of Multiple Subcutaneous Dose of Cpd. 18 in Healthy human Subjects.
Four cohorts were dosed with four once weekly subcutaneous administrations. In each cohort, consisting of 10 subjects each, subjects were randomized to either placebo (n=3) or to the following active multiple ascending dose levels (n=7): 4 weekly dose injections of 1.0 mg; 4 weekly dose injections of 2.25 mg; 4 weekly dose injections of 3.5 mg and 1 weekly dose injections of 3.5 mg followed by 3 weekly dose injections of 6.0 mg.
Adverse events (AE) were captured by asking open ended and non-leading questions according to the following wording in the protocol:
• All events meeting the definition of an AE must be collected and reported from the first trial-related activity after the subject has signed the informed consent and until the end of the post-treatment follow-up period. At each contact with the site (Visit or telephone) the subject must be asked about AEs. All AEs, either observed by the Investigator or reported by the subject, must be recorded by the Investigator and evaluated. • The Investigator should record the diagnosis, if possible. If no diagnosis can be made the Investigator should record each sign and symptom as individual AEs. • All AEs must be recorded by the Investigator. One single Adverse Event Form must be used per AE from start to resolution. For Serious Adverse Events (SAE), the Serious Adverse Event Form must also be completed.”
The safety data (incidence/number of subjects) for subjects dosed 4×1.0 mg to 1×3.5 mg plus 3×6.0 mg as well as placebo is shown in Table 10 below.

[1] = 1 × 3.5 mg plus 3 × 6.0 mg weekly s.c.

## CC[C@H](C)[C@H](NC(=O)[C@H](Cc1ccccc1)NC(=O)[C@H](CC(=O)O)NC(=O)[C@H](CCCNC(=N)N)NC(=O)[C@H](C)NC(=O)[C@H](C)NC(=O)[C@H](CCC(N)=O)NC(=O)[C@H](CCCCNC(=O)CC[C@H](NC(=O)CCCCCCCCCCCCCCCCC(=O)O)C(=O)O)NC(=O)[C@H](CC(=O)O)NC(=O)[C@H](CC(C)C)NC(=O)[C@@H](NC(=O)[C@@H](NC(=O)[C@H](C)NC(=O)[C@H](CC(C)C)NC(=O)[C@H](CCC(=O)O)NC(=O)[C@H](CO)NC(=O)[C@@H](NC(=O)[C@H](Cc1ccccc1)NC(=O)[C@H](CO)NC(=O)CNC(=O)[C@H](CCC(=O)O)NC(=O)C(C)(C)NC(=O)[C@@H](N)Cc1c[nH]cn1)[C@@H](C)O)[C@@H](C)O)[C@@H](C)CC)C(=O)N[C@@H](C)C(=O)N[C@@H](Cc1c[nH]c2ccccc12)C(=O)N[C@@H](CC(C)C)C(=O)N[C@H](C(=O)N[C@@H](CCC(N)=O)C(=O)N[C@@H](Cc1c[nH]cn1)C(=O)N[C@@H](CCCCN)C(=O)N[C@H](C(=O)N[C@H](C(=O)N[C@@H](CC(=O)O)C(=O)O)[C@@H](C)O)[C@@H](C)CC)[C@@H](C)CC [Compound 18] (H-H[Aib]EGSFTSELATILDK([γGlu-C18 diacid])QAARDFIAWLIQHKITD-OH)
[1]
  Subjects experiencing decreased appetite: 6/7 and 6
  Subjects experiencing nausea: 4
  Subjects experiencing vomiting: 3
4 weekly s.c. doses of 1.0 mg
  Subjects experiencing decreased appetite: 0
  Subjects experiencing nausea: 1
  Subjects experiencing vomiting: 0
4 weekly s.c. doses of 2.25 mg
  Subjects experiencing decreased appetite: 3/7 and 3
  Subjects experiencing nausea: 1
  Subjects experiencing vomiting: 0
4 weekly s.c. doses of 3.5 mg
  Subjects experiencing decreased appetite: 2/7 and 2
  Subjects experiencing nausea: 0
  Subjects experiencing vomiting: 0
